Consider 59 molecules from patent US20100331348A1, “TROPANE DERIVATIVES USEFUL AS PESTICIDES” (SYNGENTA CROP PROTECTION, INC., priority 2007, published 2010).

The test system of experiment [1] is Erysiphe graminis f.sp. tritici. Nature of the experiment: Erysiphe graminis f.sp. tritici (wheat powdery mildew) leaf disk assay. The format is in vivo. To be noted: Blumeria graminis, foliar, 96 h, preventive, four days after inoculation, read-out: control of fungal infection, Erysiphe graminis fsp. tritici.
For experiment [2], the system named is Puccinia recondita f.sp. tritici. The experiment in a line: Puccinia recondita f.sp. tritici (wheat brown rust) leaf disk assay. The format is in vivo. As to conditions: foliar, 216 h, preventive, nine days after inoculation, read-out: control of fungal infection, Puccinia recondita f.sp. tritici.

Bounds are passed on as bounds.

For the molecule `Fc1ccc(OC2C[C@H]3CC[C@@H](C2)N3c2ncnc3sccc23)cc1F` (some centres unmarked) [Example 1.18], the pest or weed control at 200 ppm in experiment [1] and in experiment [2] was ≥ 80% throughout.

Consider `O=C(Cc1ccccc1)c1ccc(OC2C[C@H]3CC[C@@H](C2)N3c2ncnc3sccc23)cc1` (some centres unmarked) [Example 1.257], for which, in experiment [2], the pest or weed control at 200 ppm was ≥ 80%. On the same count and under the same terms, next, `CC(=O)CCc1ccc(OC2C[C@H]3CC[C@@H](C2)N3c2ncnc3sccc23)cc1` (some centres unmarked) [Example 2.40]: ≥ 80%.

Take `FC(F)(F)c1cccc(OC2C[C@H]3CC[C@@H](C2)N3c2ccncn2)n1` (some centres unmarked) [Example 2.86]: the pest or weed control at 200 ppm in experiment [1] and in experiment [2] was ≥ 80% throughout.

On to `COCc1ncnc(N2[C@@H]3CC[C@H]2CC(Oc2cccc(C(F)(F)F)n2)C3)c1OC` (some centres unmarked) [Example 2.137], for which the pest or weed control at 200 ppm in experiment [1] and in experiment [2] was ≥ 80% each time.

For the molecule `Cn1cc(C(=O)N2[C@@H]3CC[C@H]2CC(Oc2cccc(C(F)(F)F)n2)C3)c(C(F)(F)F)c1` (some centres unmarked) [Example 2.197], the pest or weed control at 200 ppm in experiment [2] is ≥ 80%. As to `CCCOC(=O)c1ccc(OC2C[C@H]3CC[C@@H](C2)N3c2ncnc3sccc23)cc1` (some centres unmarked) [Example 2.226], the pest or weed control at 200 ppm in experiment [2] was ≥ 80%. `CCc1ncnc(N2C3CCC2CC(=CC(=O)NC(C)c2ccccc2)C3)c1Cl` (centres unmarked) [Example 3.10]: the pest or weed control at 200 ppm in experiment [2] was ≥ 80%. The same measure, in the same setting: next, `C(#Cc1ccccc1)CC=C1CC2CCC(C1)N2c1ncnc2sccc12` [Example 3.26]: ≥ 80%; `C#CCN(CC#C)C1C[C@H]2CC[C@@H](C1)N2c1ncnc2sccc12` (some centres unmarked) [Example 4.15]: ≥ 80%. As for `CCc1ncnc(N2C3CCC2CC(=NOCc2cc(C)cc(C)c2)C3)c1Cl` [Example 5.11], the pest or weed control at 200 ppm in experiment [2] was ≥ 80%. Regarding `CCc1ncnc(N2C3CCC2CC(=NOCc2cccc(Oc4ccccc4)c2)C3)c1Cl` [Example 5.18], the pest or weed control at 200 ppm in experiment [1] and in experiment [2] was ≥ 80% in each case. With `CCc1ncnc(N2C3CCC2CC(=NOCc2ccccc2-c2ccccc2)C3)c1Cl` [Example 5.35], the pest or weed control at 200 ppm in experiment [1] and in experiment [2] was ≥ 80% throughout. Regarding `CCc1ncnc(N2C3CCC2CC(=NOCc2cccc(Cl)c2)C3)c1Cl` [Example 5.37], the pest or weed control at 200 ppm in experiment [1] and in experiment [2] was ≥ 80% each time. With `CCc1ncnc(N2C3CCC2CC(=NOCc2cccc(Br)c2)C3)c1Cl` [Example 5.39], the pest or weed control at 200 ppm in experiment [1] and in experiment [2] was ≥ 80% each time.

In the case of `CCc1ncnc(N2C3CCC2CC(=NOCc2cccc(CCl)c2)C3)c1Cl` [Example 5.45], the pest or weed control at 200 ppm in experiment [1] and in experiment [2] was ≥ 80% each time. On to `CCc1ncnc(N2C3CCC2CC(=NOCc2ccccc2I)C3)c1Cl` [Example 5.46], for which the pest or weed control at 200 ppm in experiment [1] and in experiment [2] was ≥ 80% in each case.

As for `CCc1ncnc(N2C3CCC2CC(=NOCc2cc(C)ccc2C)C3)c1Cl` [Example 5.47], the pest or weed control at 200 ppm in experiment [1] and in experiment [2] was ≥ 80% each time. Turning to `CCc1ncnc(N2C3CCC2CC(=NOCc2ccc(F)c(F)c2)C3)c1Cl` [Example 5.56], the pest or weed control at 200 ppm in experiment [1] and in experiment [2] was ≥ 80% each time.

Consider `CCc1ncnc(N2C3CCC2CC(=NOCc2ccc(-c4ccccc4C#N)cc2)C3)c1Cl` [Example 5.58], for which the pest or weed control at 200 ppm in experiment [1] and in experiment [2] was ≥ 80% in each case. Take `CCc1ncnc(N2C3CCC2CC(=NOCc2cccc(Cl)c2Cl)C3)c1Cl` [Example 5.59]: the pest or weed control at 200 ppm in experiment [1] and in experiment [2] was ≥ 80% throughout.

For the molecule `CCc1ncnc(N2C3CCC2CC(=NOCc2ccc(OCc4ccccc4)cc2)C3)c1Cl` [Example 5.64], the pest or weed control at 200 ppm in experiment [1] and in experiment [2] was ≥ 80% throughout.

Turning to `CCc1ncnc(N2C3CCC2CC(=NOCc2cccc(OC(F)F)c2)C3)c1Cl` [Example 5.65], the pest or weed control at 200 ppm in experiment [1] and in experiment [2] was ≥ 80% each time.

Turning to `CCc1ncnc(N2C3CCC2CC(=NOCc2cc(F)c(F)c(F)c2)C3)c1Cl` [Example 5.67], the pest or weed control at 200 ppm in experiment [1] and in experiment [2] was ≥ 80% throughout. On to `CCc1ncnc(N2C3CCC2CC(=NOCc2cc(F)cc(F)c2F)C3)c1Cl` [Example 5.80], for which the pest or weed control at 200 ppm in experiment [1] and in experiment [2] was ≥ 80% throughout. Turning to `CCc1ncnc(N2C3CCC2CC(=NOCc2cc(F)ccc2Br)C3)c1Cl` [Example 5.83], the pest or weed control at 200 ppm in experiment [2] is ≥ 80%. Consider `CCc1ncnc(N2C3CCC2CC(=NOCc2c(F)c(F)c(F)c(F)c2F)C3)c1Cl` [Example 5.84], for which the pest or weed control at 200 ppm in experiment [1] and in experiment [2] was ≥ 80% throughout. Consider `CCc1ncnc(N2C3CCC2CC(=NOCc2ccc4ccccc4n2)C3)c1Cl` [Example 5.89], for which the pest or weed control at 200 ppm in experiment [1] and in experiment [2] was ≥ 80% each time. With `CCc1ncnc(N2C3CCC2CC(=NOCC2COc4ccccc4O2)C3)c1Cl` (centres unmarked) [Example 5.93], the pest or weed control at 200 ppm in experiment [1] and in experiment [2] was ≥ 80% in each case.

Turning to `CCc1ncnc(N2C3CCC2CC(=NOCc2cc(F)cc4c2OCOC4)C3)c1Cl` [Example 5.121], the pest or weed control at 200 ppm in experiment [1] and in experiment [2] was ≥ 80% in each case. As for `CCc1ncnc(N2C3CCC2CC(=NOc2nc(SC)nc(Cl)c2-c2ccccc2)C3)c1Cl` [Example 5.125], the pest or weed control at 200 ppm in experiment [1] was ≥ 80%. `CCc1ncnc(N2C3CCC2CC(=NOCc2noc(-c4ccc(C(F)(F)F)cc4)n2)C3)c1Cl` [Example 5.126]: the pest or weed control at 200 ppm in experiment [1] and in experiment [2] was ≥ 80% in each case. On to `ON=C1CC2CCC(C1)N2c1ncnc2sccc12` [Example 5.127], for which the pest or weed control at 200 ppm in experiment [1] is ≥ 80%.

As to `CN(C)c1cc(C(F)(F)F)nc(ON=C2CC3CCC(C2)N3c2ncnc3sccc23)n1` [Example 5.130], the pest or weed control at 200 ppm in experiment [1] is ≥ 80%.

With `Cc1cc(Cl)nc(CON=C2CC3CCC(C2)N3c2ncnc3sccc23)n1` [Example 5.132], the pest or weed control at 200 ppm in experiment [1] was ≥ 80%. With `c1cncc(CON=C2CC3CCC(C2)N3c2ncnc3sccc23)c1` [Example 5.133], in experiment [1], the pest or weed control at 200 ppm was ≥ 80%. As for `CCc1nc(Cl)c(C)c(ON=C2CC3CCC(C2)N3c2ncnc3sccc23)n1` [Example 5.171], the pest or weed control at 200 ppm in experiment [1] was ≥ 80%. On to `COc1cc(CON=C2CC3CCC(C2)N3c2ncnc3sccc23)nc(N)n1` [Example 5.172], for which the pest or weed control at 200 ppm in experiment [1] and in experiment [2] was ≥ 80% throughout.

Regarding `c1ccc(-c2ccc(CON=C3CC4CCC(C3)N4c3ncnc4sccc34)cc2)cc1` [Example 5.175], the pest or weed control at 200 ppm in experiment [1] and in experiment [2] was ≥ 80% each time. For `Cc1c(CON=C2CC3CCC(C2)N3c2ncnc3sccc23)ccc2ccccc12` [Example 5.176], the pest or weed control at 200 ppm in experiment [1] is ≥ 80%. As for `Fc1cc(Cl)cnc1ON=C1CC2CCC(C1)N2c1ncnc2sccc12` [Example 5.182], the pest or weed control at 200 ppm in experiment [1] and in experiment [2] was ≥ 80% each time. Regarding `FC(F)(F)c1cc(CON=C2CC3CCC(C2)N3c2ncnc3sccc23)cc(C(F)(F)F)c1` [Example 5.186], the pest or weed control at 200 ppm in experiment [1] is ≥ 80%. For the molecule `CCc1nc(Cl)c(CC)c(ON=C2CC3CCC(C2)N3c2ncnc3sccc23)n1` [Example 5.194], in experiment [1], the pest or weed control at 200 ppm is ≥ 80%. Consider `FC(F)(F)c1ccc(Cl)c(CON=C2CC3CCC(C2)N3c2ncnc3sccc23)c1` [Example 5.195], for which the pest or weed control at 200 ppm in experiment [1] is ≥ 80%. In the case of `ClCc1cccc(CON=C2CC3CCC(C2)N3c2ncnc3sccc23)c1` [Example 5.200], in experiment [1], the pest or weed control at 200 ppm was ≥ 80%.

With `Ic1ccccc1CON=C1CC2CCC(C1)N2c1ncnc2sccc12` [Example 5.201], the pest or weed control at 200 ppm in experiment [1] and in experiment [2] was ≥ 80% each time. `N#Cc1ccccc1-c1ccc(CON=C2CC3CCC(C2)N3c2ncnc3sccc23)cc1` [Example 5.206]: the pest or weed control at 200 ppm in experiment [2] was ≥ 80%. On to `Fc1cc(CON=C2CC3CCC(C2)N3c2ncnc3sccc23)cc(F)c1F` [Example 5.208], for which the pest or weed control at 200 ppm in experiment [1] and in experiment [2] was ≥ 80% in each case. Regarding `Cc1nc(ON=C2CC3CCC(C2)N3c2ncnc3sccc23)cc(N(C)C)n1` [Example 5.209], in experiment [1], the pest or weed control at 200 ppm is ≥ 80%.

`Fc1c(F)c(F)c(CON=C2CC3CCC(C2)N3c2ncnc3sccc23)c(F)c1F` [Example 5.225]: the pest or weed control at 200 ppm in experiment [1] and in experiment [2] was ≥ 80% each time.

With `FC(F)(F)Sc1ccc(CON=C2CC3CCC(C2)N3c2ncnc3sccc23)cc1` [Example 5.230], the pest or weed control at 200 ppm in experiment [1] and in experiment [2] was ≥ 80% each time. For `CCCON=C1CC2CCC(C1)N2c1ccnc2c1c(C)nn2C` [Example 5.244], the pest or weed control at 200 ppm in experiment [1] was ≥ 80%. As for `CCn1nnc(-c2ccc(CON=C3CC4CCC(C3)N4c3ncnc4sccc34)cc2)n1` [Example 5.247], the pest or weed control at 200 ppm in experiment [1] and in experiment [2] was ≥ 80% in each case.

For `COc1nc(-c2ccc(C)cc2)nc(ON=C2CC3CCC(C2)N3c2ncnc3sccc23)c1C` [Example 5.251], in experiment [1], the pest or weed control at 200 ppm was ≥ 80%. On to `CSc1nc(Cl)c(-c2ccccc2)c(ON=C2CC3CCC(C2)N3c2ncnc3sccc23)n1` [Example 5.254], for which the pest or weed control at 200 ppm in experiment [2] was ≥ 80%. In the case of `CCCCCCCCC1COC2(CC3CCC(C2)N3c2ncnc3sccc23)O1` (centres unmarked) [Example 6.1], the pest or weed control at 200 ppm in experiment [1] was ≥ 80%. Consider `CC(NC(=O)CC1CC2CCC(C1)N2c1ncnc2sccc12)c1ccccc1` (centres unmarked) [Example 7.13], for which the pest or weed control at 200 ppm in experiment [2] was ≥ 80%. The same measure, in the same setting: the figure for `CCCNC(=O)CC1CC2CCC(C1)N2c1ncnc(CC)c1Cl` (centres unmarked) [Example 7.30] is ≥ 80%; for `CCc1ncnc(N2C3CCC2CC(CC(=O)NC(C)c2ccccc2)C3)c1Cl` (centres unmarked) [Example 7.31] it is ≥ 80%.
